Measurements published in patent US20170056423A1 (Gilead Sciences, Inc., priority 2012, published 2017).
Like-named read-outs stand apart in the source and are kept apart here.

Assays:
[1] = for thermodynamic stability in solvents: toluene, MTBE, acetone, THF, 2-methyl THF
[2] = From the text: Chemical stability of the hemifumarate form of tenofovir alafenamide was compared with the monofumarate form. […] Conditions evaluated include temperature, relative humidity (RH), and the open or closed state of the container cap.
[3] = 25° C., relative humidity of 90%
Protocol: DVS analysis was conducted using 4.951 mg of tenofovir alafenamide hemifumarate. The material was kept at 25° C. in nitrogen at humidities ranging from 10% to 90% relative humidity: each step was equilibrated for 120 minutes.

[4] = 40° C./75% RH Cap Closed, 0 weeks
[5] = 40° C./75% RH Cap Closed, 1 week
[6] = 40° C./75% RH Cap Closed, 2 weeks
[7] = 40° C./75% RH Cap Closed, 4 weeks
[8] = 40° C./75% RH Cap Closed, 8 weeks
[9] = 40° C./75% RH Cap Open, 0 weeks
[10] = 40° C./75% RH Cap Open, 2 weeks
[11] = 40° C./75% RH Cap Open, 4 weeks
[12] = 40° C./75% RH Cap Open, 8 weeks

Substance	thermodynamic stability in solvents ([1]; ACN, ethyl acetate)	% TA Area Normalized [2, 4]	% Total Deg. Products [2, 4]	% TA Area Normalized [2, 5]	% Total Deg. Products [2, 5]	% TA Area Normalized [2, 6]	% Total Deg. Products [2, 6]	% TA Area Normalized [2, 7]	% Total Deg. Products [2, 7]	% TA Area Normalized [2, 8]	% Total Deg. Products [2, 8]	% TA Area Normalized [2, 9]	% Total Deg. Products [2, 9]	% TA Area Normalized ([2]; 40° C./75% RH Cap Open, 1 week)	% Total Deg. Products ([2]; 40° C./75% RH Cap Open, 1 week)	% TA Area Normalized [2, 10]	% Total Deg. Products [2, 10]	% TA Area Normalized [2, 11]	% Total Deg. Products [2, 11]	% TA Area Normalized [2, 12]	other results
tenofovir alafenamide monofumarate [Monofumarate form]	not thermodynamically stable	97.1%	0.69%	97.0%	0.87%	96.6%	1.18%	96.4%	1.49%	95.4%	2.36%	97.1%	0.69%	96.9%	0.90%	96.6%	1.10%	96.2%	1.67%	95.0%	form conversion when suspended in solvent ([1]; ACN, ethyl acetate, MTBE, and acetone): partially converts to the hemifumarate form; form conversion when suspended in solvent ([1]; THF and 2-methyl THF): fully converts to the hemifumarate form; % Total Deg. Products [2, 12]: 2.74%; % TA Area Normalized ([2]; 70° C. Cap Closed, 0 weeks): 97.1%; % Total Deg. Products ([2]; 70° C. Cap Closed, 0 weeks): 0.69%; % TA Area Normalized ([2]; 70° C. Cap Closed, 2 weeks): 96.2%; % Total Deg. Products ([2]; 70° C. Cap Closed, 2 weeks): 1.83%; % TA Area Normalized ([2]; 70° C. Cap Closed, 4 weeks): 93.3%; % Total Deg. Products ([2]; 70° C. Cap Closed, 4 weeks): 4.78%
tenofovir alafenamide hemifumarate	thermodynamically stable in most solvents	98.4%	0.05%	98.4%	0.14%	98.5%	0.14%	98.4%	0.25%	98.0%	0.49%	98.4%	0.05%	98.5%	0.15%	98.5%	0.14%	98.4%	0.26%	98.1%	water absorbed [3]: 0.65%; % Total Deg. Products [2, 12]: 0.50%; % TA Area Normalized ([2]; 70° C. Cap Closed, 0 weeks): 98.4%; % Total Deg. Products ([2]; 70° C. Cap Closed, 0 weeks): 0.05%; % TA Area Normalized ([2]; 70° C. Cap Closed, 2 weeks): 98.5%; % Total Deg. Products ([2]; 70° C. Cap Closed, 2 weeks): 0.22%; % TA Area Normalized ([2]; 70° C. Cap Closed, 4 weeks): 98.4%; % Total Deg. Products ([2]; 70° C. Cap Closed, 4 weeks): 0.33%
